In test [1] the target is T1, rat NaP2b (SLC34A2) (Rattus norvegicus, UniProt Q9JJ09).
T1 construct: host or cells: HEK293
T1 sequence (Q9JJ09 1-695): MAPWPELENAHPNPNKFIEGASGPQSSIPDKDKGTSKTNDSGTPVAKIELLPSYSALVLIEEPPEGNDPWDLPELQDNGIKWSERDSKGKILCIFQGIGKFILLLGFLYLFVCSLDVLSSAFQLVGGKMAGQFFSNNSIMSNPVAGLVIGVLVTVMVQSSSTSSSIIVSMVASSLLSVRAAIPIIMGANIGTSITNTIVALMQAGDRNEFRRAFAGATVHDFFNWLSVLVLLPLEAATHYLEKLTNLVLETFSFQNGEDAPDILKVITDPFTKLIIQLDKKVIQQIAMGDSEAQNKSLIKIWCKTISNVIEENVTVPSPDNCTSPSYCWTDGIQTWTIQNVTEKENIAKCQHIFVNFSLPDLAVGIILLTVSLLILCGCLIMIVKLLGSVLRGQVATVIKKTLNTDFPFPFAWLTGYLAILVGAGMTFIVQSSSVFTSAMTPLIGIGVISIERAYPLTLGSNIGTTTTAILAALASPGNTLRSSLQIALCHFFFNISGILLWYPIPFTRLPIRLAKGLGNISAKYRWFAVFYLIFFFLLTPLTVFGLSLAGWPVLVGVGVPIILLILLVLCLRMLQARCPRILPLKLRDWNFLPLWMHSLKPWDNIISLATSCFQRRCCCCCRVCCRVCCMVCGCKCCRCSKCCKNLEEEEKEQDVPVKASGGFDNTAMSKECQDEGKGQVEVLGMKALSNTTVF
Nature of the test: Inhibition of NaP2b-mediated Pi (33P) uptake in transfected HEK293 cells, rat NaP2b. In kind it is cell-based. The settings on record: 33P Pi uptake, 0.1 mM phosphate, value given as pIC50 range. Summed up: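 HEK293 cells were transiently transfected with NaP2b cDNA using Lipofectamine and grown near confluence. Compounds were tested at twelve concentrations from 0.1 nM to 30 uM in duplicate, and 33P-phosphate uptake was counted by scintillation after lysis. Results are expressed as pIC50.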

Test [2] concerns the target T2, human NaP2b (SLC34A2) (Homo sapiens, UniProt O95436).
T2 construct: host or cells: HEK293
T2 sequence (O95436 1-690): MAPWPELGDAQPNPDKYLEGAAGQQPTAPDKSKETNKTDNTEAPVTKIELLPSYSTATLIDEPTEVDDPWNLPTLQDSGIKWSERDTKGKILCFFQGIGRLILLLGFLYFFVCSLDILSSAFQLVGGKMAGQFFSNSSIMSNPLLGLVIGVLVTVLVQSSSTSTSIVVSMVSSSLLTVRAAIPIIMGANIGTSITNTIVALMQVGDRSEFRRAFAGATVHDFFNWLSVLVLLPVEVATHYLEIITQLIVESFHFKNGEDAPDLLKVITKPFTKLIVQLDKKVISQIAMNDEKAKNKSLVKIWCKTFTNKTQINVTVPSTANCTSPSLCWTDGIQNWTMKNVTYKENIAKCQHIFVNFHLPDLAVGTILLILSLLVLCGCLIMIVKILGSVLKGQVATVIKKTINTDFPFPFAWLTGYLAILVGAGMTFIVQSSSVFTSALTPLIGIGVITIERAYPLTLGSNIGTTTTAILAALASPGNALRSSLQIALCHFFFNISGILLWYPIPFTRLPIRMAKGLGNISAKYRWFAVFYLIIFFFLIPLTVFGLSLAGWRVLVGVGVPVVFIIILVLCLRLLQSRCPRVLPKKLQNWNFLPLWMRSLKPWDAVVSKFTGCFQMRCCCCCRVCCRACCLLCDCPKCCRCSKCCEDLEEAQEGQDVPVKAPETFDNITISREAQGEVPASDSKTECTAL
Nature of the test: Inhibition of NaP2b-mediated Pi (33P) uptake in transfected HEK293 cells, human NaP2b. Format: cell-based. The settings on record: read-out: pIC50 range for human NaP2b (converted). The method in brief: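 HEK293 cells transiently transfected with human NaP2b (Thr inserted after residue 37, N39D), endogenous PiT transport pharmacologically silenced. Sodium or choline buffer, pH 7.4, with 100 uM KH2PO4, 33P orthophosphate and compound (0.1 nM–30 uM, twelve concentrations, duplicate). 3-30 min at room temperature, scintillation counting, pIC50 derived.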

Regarding `CCN(CC)c1ccc(NC(=O)c2cccc(COCCOCCOCCOCCOC(=O)NCCOCCOCCOCCOCCOCCOCCOC)c2)c(-c2cc(C(=O)NCc3cccc(C(F)(F)F)c3)ccn2)c1` [Example 175, 1-(3-(4-(diethylamino)-2-(4-(3-(trifluoromethyl)benzylcarbamoyl)pyridin-2-yl)phenylcarbamoyl)phenyl)-2,5,8,11-tetraoxamidecan-13-yl 2,5,8,11,14,17,20-heptaoxadocosan-22-ylcarbamate], the IC50 in test [1] and in test [2] was 1000 to 7940 nM throughout.

For `O=C(O)CCSCc1cccc(C(=O)Nc2ccc(N3CCCCC3)cc2-c2cc(NCc3ccccc3)ncn2)c1` [Example 3.7, 3-((3-((2-(6-(Benzylamino)pyrimidin-4-yl)-4-(piperidin-1-yl)phenyl)carbamoyl)benzyl)thio)propanoic acid], the IC50 in test [1] and in test [2] was 10000 to 31600 nM throughout.

As for `CN(CCN1CCCN(S(C)(=O)=O)CC1)C(=O)c1cccc(C(=O)Nc2ccc(N3CCCCC3)cc2-c2cc(C(=O)N[C@H]3CCCc4ccccc43)ccn2)c1` [Example 220, (S)—N1-methyl-N1-(2-(4-(methylsulfonyl)-1,4-diazepan-1-yl)ethyl)-N3-(4-(piperidin-1-yl)-2-(4-(1,2,3,4-tetrahydronaphthalen-1-ylcarbamoyl)pyridin-2-yl)phenyl)isophthalamide], the IC50 is below 1000 nM in test [1] and 1000 to 7940 nM in test [2].

As to `O=C(CCSCc1cccc(C(=O)Nc2ccc(N3CCCCC3)cc2-c2cc(C(=O)NCc3cccc(C(F)(F)F)c3)ccn2)c1)NCCOCCOCCOCCOCCOCCOCCOCCO` [Example 4.19, 2-(2-(3-(29-Hydroxy-5-oxo-9,12,15,18,21,24,27-heptaoxa-2-thia-6-azanonacosyl)benzamido)-5-(piperidin-1-yl)phenyl)-N-(3-(trifluoromethyl)benzyl)isonicotinamide], the IC50 in test [1] and in test [2] was 1000 to 7940 nM throughout.

On to `CN(CCN1CCOCC1)C(=O)c1cccc(C(=O)Nc2ccc(N3CCCCC3)cc2-c2cc(C(=O)N[C@@H]3CCCc4ccccc43)ccn2)c1` [Example 97], for which the IC50 in test [1] and in test [2] was 1000 to 7940 nM in each case.

For the compound `CCN(CC)c1ccc(NC(=O)c2cccc(CCCOCCOCCOCCOCCC(=O)N3CCN(c4ccc(OCCOCCOCCOC)cc4)CC3)c2)c(-c2cc(C(=O)NCc3cccc(C(F)(F)F)c3)ccn2)c1` [Example 263, 2-(5-(diethylamino)-2-(3-(16-(4-(4-(2-(2-(2-methoxyethoxy)ethoxy)ethoxy)phenyl)piperazin-1-yl)-16-oxo-4,7,10,13-tetraoxahexadecyl)benzamido)phenyl)-N-(3-(trifluoromethyl)benzyl)isonicotinamide], the IC50 in test [1] is 1000 to 7940 nM; in test [2], below 1000 nM.

For `CCN(CC)c1ccc(NC(=O)c2cccc(COCCOCCOCCOCCOCCOCCN(CCO)CCO)c2)c(-c2cc(C(=O)NCc3cccc(C(F)(F)F)c3)ccn2)c1` [Example 178, 2-(5-(diethylamino)-2-(3-(22-hydroxy-20-(2-hydroxyethyl)-2,5,8,11,14,17-hexaoxa-20-azadocosyl)benzamido)phenyl)-N-(3-(trifluoromethyl)benzyl)isonicotinamide], the IC50 in test [1] and in test [2] was 1000 to 7940 nM in each case.

Regarding `CCN(CC)c1ccc(NC(=O)c2cccc(C(=O)N(C)CCN(C)CCOCCOCCOCCN=[N+]=[N-])c2)c(-c2cc(C(=O)N[C@H]3CCCc4ccccc43)ccn2)c1` [Example 222, (S)—N1-(14-azido-3-methyl-6,9,12-trioxa-3-azatetradecyl)-N3-(4-(diethylamino)-2-(4-(1,2,3,4-tetrahydronaphthalen-1-ylcarbamoyl)pyridin-2-yl)phenyl)-N1-methylisophthalamide], the IC50 in test [1] and in test [2] was below 1000 nM in each case.

Regarding `CCN(CC)c1ccc(NC(=O)c2cccc(CCCOCCOCCOCCOCCO)c2)c(-c2cc(C(=O)NCc3cccc(C(F)(F)F)c3)ccn2)c1` [Example 267, 2-(5-(diethylamino)-2-(3-(1-hydroxy-3,6,9,12-tetraoxapentadecan-15-yl)benzamido)phenyl)-N-(3-(trifluoromethyl)benzyl)isonicotinamide], the IC50 in test [1] and in test [2] was below 1000 nM each time.

`CN(CCN1CCOCC1)C(=O)c1cccc(C(=O)Nc2ccc(N3CCCCC3)cc2-c2cc(C(=O)NCc3ccc(C(C)(C)C)cc3)ccn2)c1` [Example 122, N1-(2-(4-((4-tert-butylbenzyl)carbamoyl)pyridin-2-yl)-4-(piperidin-1-yl)phenyl)-N3-methyl-N3-(2-morpholinoethyl)isophthalamide]: the IC50 in test [1] and in test [2] was 1000 to 7940 nM throughout.

For the compound `O=C(O)c1cccc(COCc2cccc(C(=O)Nc3ccc(N4CCCCC4)cc3-c3cc(C(=O)NCc4cccc(C(F)(F)F)c4)ccn3)c2)c1` [Example 185, 3-((3-(4-(piperidin-1-yl)-2-(4-(3-(trifluoromethyl)benzylcarbamoyl)pyridin-2-yl)phenylcarbamoyl)benzyloxy)methyl)benzoic acid], the IC50 in test [1] is 1000 to 7940 nM; in test [2], below 1000 nM.

Consider `CCN(CC)c1ccc(NC(=O)c2cccc(CCCOCCOCCOCCOCCC(=O)N3CCN(S(=O)(=O)c4ccc(C)cc4)CC3)c2)c(-c2cc(C(=O)NCc3cccc(C(F)(F)F)c3)ccn2)c1` [Example 291, 2-(5-(diethylamino)-2-(3-(16-oxo-16-(4-tosylpiperazin-1-yl)-4,7,10,13-tetraoxahexadecyl)benzamido)phenyl)-N-(3-(trifluoromethyl)benzyl)isonicotinamide], for which the IC50 in test [1] is 1000 to 7940 nM; in test [2] it was below 1000 nM.

`COCCOCCOCCOCCOCCOCCOCCOCC(=O)N1CCCN(CCN(C)C(=O)c2cccc(C(=O)Nc3ccc(N4CCCCC4)cc3-c3cc(C(=O)N[C@H]4CCCc5ccccc54)ccn3)c2)CC1` [Example 213, (S)—N1-(2-(4-2,5,8,11,14,17,20,23-octaoxapentacosane-1,4-diazepan-1-yl)ethyl)-N1-methyl-N3-(4-(piperidin-1-yl)-2-(4-(1,2,3,4-tetrahydronaphthalen-1-ylcarbamoyl)pyridin-2-yl)phenyl)isophthalamide]: the IC50 was 10000 to 31600 nM in test [1] and 1000 to 7940 nM in test [2].

`CCN(CC)c1ccc(NC(=O)c2cccc(CCCOCCOCCOCCOCCNC(=O)N(CCO)CCO)c2)c(-c2cc(C(=O)NCc3cccc(C(F)(F)F)c3)ccn2)c1` [Example 274, 2-(5-(diethylamino)-2-(3-(1-hydroxy-3-(2-hydroxyethyl)-4-oxo-8,11,14,17-tetraoxa-3,5-diazaicosan-20-yl)benzamido)phenyl)-N-(3-(trifluoromethyl)benzyl)isonicotinamide]: the IC50 in test [1] and in test [2] was 1000 to 7940 nM throughout.

For `CCN(CC)c1ccc(NC(=O)c2cccc(C(=O)N(C)CCN3CCN(C(=O)OCCOCCOCCOCCOCCOCCOCCOC)CC3)c2)c(-c2cc(C(=O)N[C@H]3CCCc4ccccc43)ccn2)c1` [Example 230, (S)-2,5,8,11,14,17,20-heptaoxadocosan-22-yl 4-(2-(3-(4-(diethylamino)-2-(4-(1,2,3,4-tetrahydronaphthalen-1-ylcarbamoyl)pyridin-2-yl)phenylcarbamoyl)-N-methylbenzamido)ethyl)piperazine-1-carboxylate], the IC50 in test [1] and in test [2] was 1000 to 7940 nM in each case.

The values above are taken from US20140023611A1 (priority 2010, published 2014).
